# Test results from PubChem BioAssay (NCI).
# Several values for one entry are separate records, joined by “and”; a condition that tells them apart may be missing. Identical values can stand only once.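 In this assay, cells in 96-well plates receive the compound at five concentrations for 48 hours. Endpoints are linearly interpolated between the surrounding concentrations. GI50 is the concentration that inhibits growth by half. Definition used: TGI = concentration required for complete inhibition of growth.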
# What was measured:
# Test in all cases: NCI tumour cell line growth inhibition, 48 h
# HCC-2998 colon = tested on: HCC-2998 colon
# HCT-116 colon = tested on: HCT-116 colon
# HS 578T breast = tested on: HS 578T breast
# NCI-H226 lung = tested on: NCI-H226 lung
# NCI-H460 lung = tested on: NCI-H460 lung
# NCI-H522 lung = tested on: NCI-H522 lung
# OVCAR-8 ovarian = tested on: OVCAR-8 ovarian
# SNB-19 CNS = tested on: SNB-19 CNS
# UO-31 renal = tested on: UO-31 renal
# SK-MEL-5 melanoma = tested on: SK-MEL-5 melanoma
SMILES,TGI (HCC-2998 colon) [µM],TGI (HCT-116 colon) [µM],TGI (HS 578T breast) [µM],TGI (NCI-H226 lung) [µM],TGI (NCI-H460 lung) [µM],TGI (NCI-H522 lung),TGI (OVCAR-8 ovarian),TGI (SNB-19 CNS),TGI (UO-31 renal),TGI (SK-MEL-5 melanoma),GI50 (HCC-2998 colon) [µM],GI50 (HCT-116 colon) [µM],GI50 (NCI-H522 lung) [µM],GI50 (OVCAR-8 ovarian) [µM],GI50 (SK-MEL-5 melanoma) [µM],GI50 (SNB-19 CNS) [µM],GI50 (UO-31 renal) [µM],GI50 (HS 578T breast) [µM],GI50 (NCI-H226 lung) [µM],GI50 (NCI-H460 lung) [µM]
COc1cc(CNc2nc3cc(C(F)(F)F)ccc3nc2C(=O)O)cc(OC)c1OC,> 100,29,57,> 100,82,> 100 µM,> 100 µM,56.7 µM,39.4 µM,–,–,–,–,–,–,–,–,–,–,–
Cc1cc2nc(N)n[n+]([O-])c2cc1C,> 100,> 100,> 100,> 100,–,> 100 µM,> 100 µM,> 100 µM,> 100 µM,> 100 µM,–,–,–,–,–,–,–,–,–,–
CCOC(=O)C(NC(=O)Nc1ccccc1)(Nc1cccc(Cl)c1)C(F)(F)F (configuration not stated),> 100,> 100,> 78.4,> 100,> 100,> 100 µM,> 100 µM,> 100 µM,> 100 µM,> 100 µM,–,–,–,–,–,–,–,–,–,–
O=C(O)CC(Cc1ccccc1)C(=O)O (configuration not stated),> 100,> 100,> 100,> 100,> 100,> 100 µM,> 100 µM,> 100 µM,> 100 µM,> 100 µM,–,–,–,–,–,–,–,–,–,–
COC(=O)c1ccc2c(c1)CCN2C(=O)c1cc2c(cc1Br)OCO2,–,–,–,4.44,50,0.4 µM and 0.29 µM,50 µM and 14.7 µM,12.8 µM and > 100 µM,24.8 µM and 72.1 µM,5.5 µM and 14.1 µM,21.2,0.677,0.0801,1.52,0.581,1.31,0.817,–,–,–
C/C(=C/CC[C@](C)(OC1OC(CO)C(O)C(O)C1OC1OC(C)C(O)C(O)C1O)[C@H]1CC[C@]2(C)[C@@H]1CC[C@@H]1[C@@]3(C)CC[C@H](O)C(C)(C)[C@@H]3C[C@H](O)[C@]12C)CO (some centres not stated),–,> 100,> 100,> 100,> 100,> 100 µM,> 100 µM,> 100 µM,> 100 µM,> 100 µM,–,–,–,–,–,–,–,–,–,–
O=C(/C=C/c1ccco1)c1ccc(Nc2ccnc3cc(Cl)ccc23)cc1,> 100,–,> 100,> 100,> 100,> 100 µM,> 100 µM,> 100 µM,–,> 100 µM,> 100,–,> 100,> 100,12,> 100,–,> 100,> 100,2.13
COc1ccc(/C=C/C=C2C(=O)NC(=S)NC2=O)cc1,21.3,13.7,> 56.6,44.6,30.6,–,13.1 µM,20 µM,19.9 µM,26.1 µM,–,–,–,–,–,–,–,–,–,–
Nc1c(Cl)ncnc1NCC1(CO)CCC1,–,> 100,> 100,> 100,> 100,> 100 µM,> 100 µM,–,> 100 µM,> 100 µM,–,–,–,–,–,–,–,–,–,–
COc1ccc(/C=N/N=C(N)N)c(C(=O)O)c1OC,–,> 100,–,–,> 100,> 100 µM,> 100 µM,> 100 µM,> 100 µM,> 100 µM,–,–,–,–,–,–,–,–,–,–
NC(=O)c1ccc(N)nc1,> 400,> 400,> 400,> 400,> 400,> 400 µM,> 400 µM,> 400 µM,> 400 µM,–,–,–,–,–,–,–,–,–,–,–
C=CCCCN1C(=O)C2C3c4ccccc4C(C=O)(c4ccccc43)C2C1=O (configuration not stated),28.5,14.9,–,–,30.3,25.7 µM,26.5 µM,32.1 µM,26 µM,23.5 µM,–,–,–,–,–,–,–,–,–,–
O=C1NC(N2CCOCC2)=N/C1=C\c1ccccc1,> 100,> 100,> 100,> 100,–,> 100 µM,> 100 µM,> 100 µM,> 100 µM,> 100 µM,–,–,–,–,–,–,–,–,–,–
Brc1ccc2c(c1)[C@H]1CCc3c([nH]c4ccccc34)[C@H]1N2,25.5,21,46.5,28.4,24.8,–,27.4 µM,27 µM,26.9 µM,12.1 µM,–,–,–,–,–,–,–,–,–,–
COc1cc(C(C)(C)C)c(OC(=O)/C=C/C(=O)O/C=C/[N+](=O)[O-])c(C(C)(C)C)c1,> 100,> 100,63.9,> 100,> 100,85.7 µM,> 100 µM,–,76.9 µM,> 100 µM,–,–,–,–,–,–,–,–,–,–
Cc1cc([C@H](C#N)c2nc3ccccc3s2)nc(Cl)n1,16.3,15.3,33.3,35.1,15.3,–,14.3 µM,> 100 µM,21.3 µM,45.9 µM,–,–,–,–,–,–,–,–,–,–
N#CCCN(CCN(CCN(C(=O)Nc1ccccc1)c1ccccc1)C(=O)Nc1ccccc1)C(=O)Nc1ccccc1,> 100,> 100,> 100,> 100,–,–,> 100 µM,> 100 µM,> 100 µM,> 100 µM,–,–,–,–,–,–,–,–,–,–
COc1ccc(NC(=O)c2cc(NC(=O)/C=C/c3ccccc3)c(OC)c(OC)c2)cc1,–,> 100,> 100,> 100,> 100,–,–,> 100 µM,5.62 µM,> 100 µM,–,–,–,–,–,–,–,–,–,–
COC12OC3(C4OC41)C(C(=O)O[C@H]3CO[Si](C)(C)C(C)(C)C)C2S(=O)(=O)c1ccccc1 (some centres not stated),> 100,> 7.06,> 100,> 100,> 100,50.4 µM,> 100 µM,–,> 5.18 µM,–,–,–,–,–,–,–,–,–,–,–
NC1=CN2c3ccccc3N(CC(=O)N3CCOCC3)C2C=C1 (configuration not stated),–,> 100,> 100,> 100,> 100,> 100 µM,> 100 µM,> 100 µM,> 100 µM,> 100 µM,–,–,–,–,–,–,–,–,–,–
Nc1nc(-c2ccccc2)cc(-c2ccc(F)cc2)c1-c1ccc(Cl)cc1,> 100,> 100,> 100,> 100,> 100,–,> 100 µM,> 100 µM,> 100 µM,> 100 µM,–,–,–,–,–,–,–,–,–,–
N.N.NCCCCN.O=C([O-])CCl.O=C([O-])CCl.O=C([O-])CCl.O=C([O-])CCl.[Pt+4].[Pt+4],> 50,> 50,–,–,> 50,> 50 µM,> 50 µM,–,> 50 µM,> 50 µM,–,–,–,–,–,–,–,–,–,–
